Experiment [1] is described as follows: Food intake test (food-deprived rats). The format is in vivo, Male Sprague-Dawley derived rats. As to the method:
(§1) Male Sprague-Dawley derived rats, Charles River Breeders (Portage, MI), weighing between 200-400 grams at the time of testing, were employed in the food intake studies and water intake studies. The rats were housed individually and kept on a 12 hour light-dark light cycle. The room temperature ranged between 23°-25° C.
The rats employed in food intake testing were food deprived on the day preceding testing and were divided into experimental groups that were matched on the basis of average daily food intake and body weight. At approximately 24 hours post-deprivation, the rats were administered a test sample containing as the active ingredient a compound of the present invention. All test samples employed herein were prepared and homogenized in a vehicle of normal saline (to which a few drops of PG/Tween 80 was added). The test samples were administered at an injection volume of 2 ml./kg, unless otherwise stated. Thirty minutes following administration of the test samples, pre-weighed food jars, containing ground meal, were placed in the rats' cages. (Prior to testing the rats were given ground meal for a minimum of 3 days to familiarize the rats with this food.) After 1, 2 and 6 hours of food access, the jars were removed, weighed and returned to the rats' cages providing a 1, 2 and 6 hour intake measurement. The results obtained are represented in Table I. A student t test was used for making statistical comparisons, and the p-values are based upon two-tailed comparisons. The compound employed as the active ingredient of the test sample is indicated by the example number which describes its preparation.

Experiment [2] can be described thus: Water intake test (water-deprived rats). The experiment is classed as in vivo, Male Sprague-Dawley derived rats. Conditions: for Water Intake as a % of Control, 15 m: 15 minutes; for Water Intake as a % of Control, 30 m: 30 minutes; for Water Intake as a % of Control, 45 m: 45 minutes; for Water Intake as a % of Control, 60 m: 60 minutes; for Water Intake as a % of Control, 120 m: 120 minutes. As for the experimental part:
as §1
The rats employed in water intake testing were water deprived for 1 day and then maintained on a restricted water schedule. Water was available for two hours on the first day post water deprivation and for 1 hour each day afterwards for a minimum of 1 week. Using drinking tubes (50 ml. graduated cylinders), water intake was measured for at least 3 consecutive days prior to testing. On the day preceding testing, rats were divided into different experimental groups that were matched on the basis of avg. 0-15 min. water intake and body weight. On the day of testing, a test sample, containing as the active ingredient the compound prepared in Example 2, was administered. […] Food was removed from the animal at the start of the drinking test. A student t test was used for making statistical comparisons, and the p-values are based upon two-tailed comparisons.

The mark [3] stands for this setting: 32.0 mg/kg i.g., injection volume 3.0 ml./kg.
Setting [4] is: 75.0 mg/kg i.g., injection volume 3.0 ml./kg.

For the compound `O=c1c(-c2ccc(Cl)cc2)c2c(cn1CO)Sc1ccc(Cl)cc1N2` [Example 5, 7-chloro-4-(4-chlorophenyl)-2-(hydroxymethyl)-5H-pyrido[3,4-b][1,4]benzothiazin-3(2H)-one], in experiment [1] (75.0 mg/kg i.g.), the “Food Intake % of control, 1 Hr.” value was 89.9 % of control; the “Food Intake % of control, 2 Hr.” value is listed as 96.1 % of control; the “Food Intake % of control, 6 Hr.” value is given as 83.1 % of control.
Consider `O=c1c(-c2ccc(Cl)cc2)c2c(cn1CO)Sc1ccccc1N2` [Example 1, 4-(4-chlorophenyl)-2-(hydroxymethyl)-5H-pyrido[3,4-b][1,4]benzothiazin-3(2H)-one], for which, in experiment [1] (10.0 mg/kg i.g.), the “Food Intake % of control, 1 Hr.” value was 109.8 % of control; the “Food Intake % of control, 2 Hr.” value is given as 104.5 % of control; the “Food Intake % of control, 6 Hr.” value is 92.1 % of control. In experiment [1] (32.0 mg/kg i.g.), the “Food Intake % of control, 1 Hr.” value is on record as 90.2 % of control; the “Food Intake % of control, 2 Hr.” value is listed as 86.6 % of control; the “Food Intake % of control, 6 Hr.” value is 86.5 % of control. The “oral appetite suppressant activity” value in experiment [1] is reported as “possess oral appetite suppressant activity”.
Regarding `CCCCC(=O)OCn1cc2c(c(-c3ccc(Cl)cc3)c1=O)Nc1ccccc1S2` [Example 3, 4-(4-chlorophenyl)-2-[(1-oxopentoxy)methyl]-5H-pyrido[3,4-b][1,4]benzothiazin-3(2H)-one], in experiment [1] (setting [3]), the “Food Intake % of control, 1 Hr.” value is 83.3 % of control; the “Food Intake % of control, 2 Hr.” value is on record as 100.0 % of control; the “Food Intake % of control, 6 Hr.” value is listed as 111.5 % of control. Besides, in experiment [1] (setting [4]), the “Food Intake % of control, 1 Hr.” value is given as 68.5 % of control; the “Food Intake % of control, 2 Hr.” value is reported as 96.8 % of control; the “Food Intake % of control, 6 Hr.” value is 102.6 % of control. Further, the “oral appetite suppressant activity” value in experiment [1] is given as “possess oral appetite suppressant activity”.
For the compound `CCCC(=O)OCn1cc2c(c(-c3ccc(Cl)cc3)c1=O)Nc1ccccc1S2` [Example 2, 4-(4-chlorophenyl)-2-[(1-oxobutoxy)methyl]-5H-pyrido[3,4-b][1,4]benzothiazin-3-(2H)-one], the “Water Intake as a % of Control, 15 m” value is on record as 96.4 % of Control in experiment [2] (10.0 mg/kg i.g.), 89.2 % of Control in experiment [2] (18.0 mg/kg i.g.) and 64.9 % of Control in experiment [2] (32.0 mg/kg i.g.). For the same compound, the “Water Intake as a % of Control, 30 m” value in experiment [2] (10.0 mg/kg i.g.) is 98.3 % of Control; in experiment [2] (18.0 mg/kg i.g.) it was 89.1 % of Control; in experiment [2] (32.0 mg/kg i.g.), 69.7 % of Control. The “Water Intake as a % of Control, 45 m” value in experiment [2] (10.0 mg/kg i.g.) is listed as 99.2 % of Control; in experiment [2] (18.0 mg/kg i.g.), 88.6 % of Control; in experiment [2] (32.0 mg/kg i.g.) it was 70.7 % of Control. In addition, the “Water Intake as a % of Control, 60 m” value in experiment [2] (10.0 mg/kg i.g.) is listed as 100.0 % of Control; in experiment [2] (18.0 mg/kg i.g.), 92.0 % of Control; in experiment [2] (32.0 mg/kg i.g.) it was 75.2 % of Control. Also, the “Water Intake as a % of Control, 120 m” value was 103.7 % of Control in experiment [2] (10.0 mg/kg i.g.), 94.8 % of Control in experiment [2] (18.0 mg/kg i.g.) and 79.3 % of Control in experiment [2] (32.0 mg/kg i.g.). For the same compound, the “Food Intake % of control, 1 Hr.” value is 87.9 % of control in experiment [1] (1.0 mg/kg i.p.); 57.6 % of control in experiment [1] (3.2 mg/kg i.p.); 85.7 % of control in experiment [1] (10.0 mg/kg i.g.); 39.4 % of control in experiment [1] (10.0 mg/kg i.p.); 57.1 % of control in experiment [1] (32.0 mg/kg i.g.); 30.3 % of control in experiment [1] (32.0 mg/kg i.p.). The “Food Intake % of control, 2 Hr.” value in experiment [1] (1.0 mg/kg i.p.) is reported as 90.9 % of control; in experiment [1] (3.2 mg/kg i.p.), 76.6 % of control; in experiment [1] (10.0 mg/kg i.g.), 93.6 % of control; in experiment [1] (10.0 mg/kg i.p.) it was 61.0 % of control; in experiment [1] (32.0 mg/kg i.g.), 74.4 % of control; in experiment [1] (32.0 mg/kg i.p.), 40.3 % of control. The “Food Intake % of control, 6 Hr.” value in experiment [1] (1.0 mg/kg i.p.) is given as 100.0 % of control; in experiment [1] (3.2 mg/kg i.p.) it was 91.0 % of control; in experiment [1] (10.0 mg/kg i.g.) it was 92.5 % of control; in experiment [1] (10.0 mg/kg i.p.) it was 88.1 % of control; in experiment [1] (32.0 mg/kg i.g.), 87.9 % of control; in experiment [1] (32.0 mg/kg i.p.) it was 70.3 % of control. Besides, the “oral appetite suppressant activity” value in experiment [1] is recorded as “possess oral appetite suppressant activity”.
On to `CC(C)(C)C(=O)OCn1cc2c(c(-c3ccc(Cl)cc3)c1=O)Nc1ccccc1S2` [Example 9, 4-(4-chlorophenyl)-2-[(2,2-dimethyl-1-oxopropoxy)methyl]-5H-pyrido[3,4-b][1,4]benzothiazin-3(2H)-one], for which, in experiment [1] (10.0 mg/kg i.g.), the “Food Intake % of control, 1 Hr.” value was 111.1 % of control; the “Food Intake % of control, 2 Hr.” value was 102.6 % of control; the “Food Intake % of control, 6 Hr.” value is given as 96.3 % of control. Moreover, in experiment [1] (32.0 mg/kg i.g.), the “Food Intake % of control, 1 Hr.” value was 111.1 % of control; the “Food Intake % of control, 2 Hr.” value was 106.4 % of control; the “Food Intake % of control, 6 Hr.” value is on record as 92.5 % of control.
